Measured values as given in patent publication US9822103B2, “Inhibitors of lysine methyl transferase” (priority 2013, dated 2017).

These molecules were tested against recombinant EZH2-641F complex (EZH2 Y641F/EED/SUZ12/RbAp48/AEBP2) (Homo sapiens (Human), UniProt Q15910, Y641F) (assay: EZH2 Histone Methyl Transferase Assay (scintillation proximity assay)). Details: 350 nM histone peptide substrate, 500 nM 3H-SAM, 3 hours room temperature.
Chain of recombinant EZH2-641F complex (EZH2 Y641F/EED/SUZ12/RbAp48/AEBP2) (Q15910 whole entry Y641F): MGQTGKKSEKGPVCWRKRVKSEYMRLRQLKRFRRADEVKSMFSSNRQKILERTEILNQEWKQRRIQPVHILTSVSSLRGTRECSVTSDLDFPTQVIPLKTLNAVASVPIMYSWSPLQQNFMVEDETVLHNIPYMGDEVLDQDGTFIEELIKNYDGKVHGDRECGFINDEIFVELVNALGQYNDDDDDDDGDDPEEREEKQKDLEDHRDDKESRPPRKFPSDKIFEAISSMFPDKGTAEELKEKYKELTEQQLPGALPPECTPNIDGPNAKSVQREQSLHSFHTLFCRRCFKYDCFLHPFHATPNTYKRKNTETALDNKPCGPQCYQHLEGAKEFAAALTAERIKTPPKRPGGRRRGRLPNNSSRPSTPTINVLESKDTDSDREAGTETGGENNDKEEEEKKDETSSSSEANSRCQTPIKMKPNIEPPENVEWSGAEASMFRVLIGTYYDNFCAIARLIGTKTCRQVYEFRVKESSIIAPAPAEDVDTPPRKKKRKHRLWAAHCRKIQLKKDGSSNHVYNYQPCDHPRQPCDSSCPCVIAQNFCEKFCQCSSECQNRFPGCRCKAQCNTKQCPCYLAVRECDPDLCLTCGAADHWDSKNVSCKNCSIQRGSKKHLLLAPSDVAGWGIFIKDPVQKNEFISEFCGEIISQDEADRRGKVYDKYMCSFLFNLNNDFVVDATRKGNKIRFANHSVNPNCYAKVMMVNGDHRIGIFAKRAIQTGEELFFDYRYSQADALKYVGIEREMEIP
Chain of recombinant EZH2-641F complex (EZH2 Y641F/EED/SUZ12/RbAp48/AEBP2) (O75530 whole entry partner): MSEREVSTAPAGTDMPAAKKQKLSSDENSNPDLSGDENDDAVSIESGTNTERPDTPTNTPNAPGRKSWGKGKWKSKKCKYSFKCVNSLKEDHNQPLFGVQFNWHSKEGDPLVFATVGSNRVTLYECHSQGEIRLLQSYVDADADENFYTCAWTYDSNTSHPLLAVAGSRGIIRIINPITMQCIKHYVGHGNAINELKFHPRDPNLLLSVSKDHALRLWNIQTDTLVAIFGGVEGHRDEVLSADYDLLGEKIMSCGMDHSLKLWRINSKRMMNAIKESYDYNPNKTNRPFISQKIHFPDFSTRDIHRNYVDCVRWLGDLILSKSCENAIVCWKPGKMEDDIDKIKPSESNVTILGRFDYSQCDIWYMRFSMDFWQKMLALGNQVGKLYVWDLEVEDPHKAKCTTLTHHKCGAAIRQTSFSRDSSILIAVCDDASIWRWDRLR
Chain of recombinant EZH2-641F complex (EZH2 Y641F/EED/SUZ12/RbAp48/AEBP2) (Q15022 whole entry partner): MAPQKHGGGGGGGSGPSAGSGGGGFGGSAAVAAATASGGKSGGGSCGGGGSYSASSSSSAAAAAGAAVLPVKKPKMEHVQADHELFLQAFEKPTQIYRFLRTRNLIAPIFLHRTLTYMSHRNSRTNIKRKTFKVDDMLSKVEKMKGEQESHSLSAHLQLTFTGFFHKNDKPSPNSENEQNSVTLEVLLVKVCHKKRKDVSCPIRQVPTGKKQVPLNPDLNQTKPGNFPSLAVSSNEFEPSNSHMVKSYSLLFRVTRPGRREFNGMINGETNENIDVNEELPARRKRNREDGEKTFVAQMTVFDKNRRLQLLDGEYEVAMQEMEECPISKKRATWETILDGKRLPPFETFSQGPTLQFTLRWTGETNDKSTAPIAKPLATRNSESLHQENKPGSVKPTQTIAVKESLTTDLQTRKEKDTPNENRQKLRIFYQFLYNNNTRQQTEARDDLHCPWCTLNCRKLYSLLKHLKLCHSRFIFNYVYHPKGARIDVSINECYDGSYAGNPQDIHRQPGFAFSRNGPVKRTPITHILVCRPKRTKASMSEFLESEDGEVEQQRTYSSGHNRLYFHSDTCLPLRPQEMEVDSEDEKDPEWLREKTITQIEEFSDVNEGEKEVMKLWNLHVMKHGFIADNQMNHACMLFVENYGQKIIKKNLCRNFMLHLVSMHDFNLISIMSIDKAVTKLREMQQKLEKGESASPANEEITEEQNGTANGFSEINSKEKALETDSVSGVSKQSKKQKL
Chain of recombinant EZH2-641F complex (EZH2 Y641F/EED/SUZ12/RbAp48/AEBP2) (Q09028 whole entry partner): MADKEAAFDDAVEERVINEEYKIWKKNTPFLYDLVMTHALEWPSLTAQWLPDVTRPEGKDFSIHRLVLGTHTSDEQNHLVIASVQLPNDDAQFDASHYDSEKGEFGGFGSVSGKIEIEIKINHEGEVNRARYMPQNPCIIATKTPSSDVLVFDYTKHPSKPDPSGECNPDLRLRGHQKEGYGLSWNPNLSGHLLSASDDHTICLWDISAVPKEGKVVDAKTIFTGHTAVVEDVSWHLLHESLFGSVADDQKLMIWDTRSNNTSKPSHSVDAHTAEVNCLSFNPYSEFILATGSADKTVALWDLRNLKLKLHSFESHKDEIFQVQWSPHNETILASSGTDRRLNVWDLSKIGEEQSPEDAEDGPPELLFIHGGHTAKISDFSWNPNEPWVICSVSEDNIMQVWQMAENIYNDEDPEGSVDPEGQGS
Chain of recombinant EZH2-641F complex (EZH2 Y641F/EED/SUZ12/RbAp48/AEBP2) (Q6ZN18 whole entry partner): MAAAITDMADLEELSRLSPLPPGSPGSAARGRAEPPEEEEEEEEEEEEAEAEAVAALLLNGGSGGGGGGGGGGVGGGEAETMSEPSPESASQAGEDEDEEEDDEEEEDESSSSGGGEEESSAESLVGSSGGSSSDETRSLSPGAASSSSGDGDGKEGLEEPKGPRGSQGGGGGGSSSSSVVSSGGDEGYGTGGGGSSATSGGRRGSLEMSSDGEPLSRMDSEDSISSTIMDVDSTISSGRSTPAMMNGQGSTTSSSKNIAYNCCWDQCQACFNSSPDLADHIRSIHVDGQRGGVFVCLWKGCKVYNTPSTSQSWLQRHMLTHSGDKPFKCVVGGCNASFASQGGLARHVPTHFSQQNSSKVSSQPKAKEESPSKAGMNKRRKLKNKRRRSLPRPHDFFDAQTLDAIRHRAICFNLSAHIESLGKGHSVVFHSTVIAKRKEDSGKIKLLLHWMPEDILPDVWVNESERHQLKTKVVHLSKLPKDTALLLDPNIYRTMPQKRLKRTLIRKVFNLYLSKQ
Format: biochemical
How it was run: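 Radiometric SPA with EZH2 Y641F/EED/SUZ12/RbAp48/AEBP2 complex (5 nM pure or 15 nM in-house), 350 nM biotinylated K(Me2) histone peptide and 500 nM [3H]-SAM in Tris pH 9.0, 3 h at room temperature. Compounds were tested at eleven concentrations; EC50 came from non-linear regression.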
With `COc1ccc(-c2cc(C(=O)NCc3c(C)cc(C)[nH]c3=O)cc3c2OCC3)cn1` [Example 36, N-((4,6-Dimethyl-2-oxo-1,2-dihydropyridin-3-yl)methyl)-7-(6-methoxypyridin-3-yl)-2,3-dihydrobenzofuran-5-carboxamide] the IC50 was over 1 µM. In the case of `Cc1cc(C)c(CNC(=O)c2cc3c(c(-c4ccc(N5CCOCC5)nc4)c2)OC(C)(C)C3)c(=O)[nH]1` [Example 12, N-((4,6-Dimethyl-2-oxo-1,2-dihydropyridin-3-yl)methyl)-2,2-dimethyl-7-(6-morpholinopyridin-3-yl)-2,3-dihydrobenzofuran-5-carboxamide], the IC50 is reported as under 0.5 µM. For `COc1ccc(-c2cc(C(=O)NCc3c(C)cc(C)[nH]c3=O)cc3c2OC(C)C3)cn1` (stereo not drawn) [Example 32, N-((4,6-Dimethyl-2-oxo-1,2-dihydropyridin-3-yl)methyl)-7-(6-methoxypyridin-3-yl)-2-methyl-2,3-dihydrobenzofuran-5-carboxamide], the IC50 was over 1 µM. For `Cc1cc(C)c(CNC(=O)c2cc3c(c(-c4ccc(N5CCNCC5)nc4)c2)OC(C)(C)C3)c(=O)[nH]1` [Example 11, N-((4,6-Dimethyl-2-oxo-1,2-dihydropyridin-3-yl)methyl)-2,2-dimethyl-7-(6-(piperazin-1-yl)pyridin-3-yl)-2,3-dihydrobenzofuran-5-carboxamide], the IC50 was under 0.5 µM. Molecule `Cc1cc(C)c(CNC(=O)c2cc(C)c3c(c2)CC(C)(C)O3)c(=O)[nH]1` [Example 6, N-((4,6-Dimethyl-2-oxo-1,2-dihydropyridin-3-yl)methyl)-2,2,7-trimethyl-2,3-dihydrobenzofuran-5-carboxamide] has an IC50 of over 1 µM. Molecule `CCC1COc2cc(C(=O)NCc3c(C)cc(C)[nH]c3=O)cc(Br)c2O1` (stereo not drawn) [Example 91, 8-Bromo-N-((4,6-dimethyl-2-oxo-1,2-dihydropyridin-3-yl)methyl)-2-ethyl-2,3-dihydrobenzo[b][1,4]dioxine-6-carboxamide] has an IC50 of over 1 µM. `CCC1(C)Cc2cc(C(=O)NCc3c(C)cc(C)[nH]c3=O)cc(-c3ccc(C)cc3)c2O1` (stereo not drawn) [Example 63, N-((4,6-Dimethyl-2-oxo-1,2-dihydropyridin-3-yl)methyl)-2-ethyl-2-methyl-7-(p-tolyl)-2,3-dihydrobenzofuran-5-carboxamide] gave an IC50 of over 1 µM. For `Cc1cc(C)c(CNC(=O)c2cc3c(c(-c4cnc(N5CCN(C(=O)OC(C)(C)C)CC5)nc4)c2)OC2(CCCC2)C3)c(=O)[nH]1` [Example 73, tert-Butyl 4-(5-(5-(((4,6-dimethyl-2-oxo-1,2-dihydropyridin-3-yl)methyl)carbamoyl)-3H-spiro[benzofuran-2,1′-cyclopentan]-7-yl)pyrimidin-2-yl)piperazine-1-carboxylate], the IC50 was over 1 µM. With `Cc1cc(C)c(CNC(=O)c2cc3c(c(Br)c2C)O[C@@]2(C)CCC[C@@H]32)c(=O)[nH]1` (racemic) [Example 69, rac-(3aS,8bS)-5-Bromo-N-((4,6-dimethyl-2-oxo-1,2-dihydropyridin-3-yl)methyl)-3a,6-dimethyl-2,3,3a,8b-tetrahydro-1H-cyclopenta[b]benzofuran-7-carboxamide] the IC50 was under 0.5 µM. In the case of `Cc1cc(C)c(CNC(=O)c2cc(Br)c3c(c2)[C@@H]2CCC[C@]2(C)O3)c(=O)[nH]1` (racemic) [Example 64, rac-(3aS,8bS)-5-Bromo-N-((4,6-dimethyl-2-oxo-1,2-dihydropyridin-3-yl)methyl)-3a-methyl-2,3,3a,8b-tetrahydro-1H-cyclopenta[b]benzofuran-7-carboxamide], the IC50 is reported as over 1 µM. Work on `C=CC1(C)Cc2cc(C(=O)NCc3c(C)cc(C)[nH]c3=O)cc(-c3cnc(N4CCN(C(=O)OC(C)(C)C)CC4)nc3)c2O1` (stereo not drawn) [Example 60, t-Butyl 4-(5-(5-(((4,6-dimethyl-2-oxo-1,2-dihydropyridin-3-yl)methyl)carbamoyl)-2-methyl-2-vinyl-2,3-dihydrobenzofuran-7-yl)pyrimidin-2-yl)piperazine-1-carboxylate] yielded an IC50 of over 1 µM. With `CCC1(C)Cc2cc(C(=O)NCc3c(C)cc(C)[nH]c3=O)cc(-c3ccc(OC)nc3)c2O1` (stereo not drawn) [Example 61, N-((4,6-Dimethyl-2-oxo-1,2-dihydropyridin-3-yl)methyl)-2-ethyl-7-(6-methoxypyridin-3-yl)-2-methyl-2,3-dihydrobenzofuran-5-carboxamide] the IC50 was over 1 µM.
